The values below come from patent US20260297542A1, “HERBICIDE RESISTANT PLANTS” (SYNGENTA CROP PROTECTION AG, priority 2023, published 2026).

Holding throughout (assay): E. coli hemG growth inhibition by herbicide, AtPPO1 variant
Assay type in all cases: cell-based
Holding throughout (conditions): read-out: percentage growth inhibition

The target of one test is T1, AtPPO1 V511L (Arabidopsis thaliana, UniProt P55826, V511L).
T1 construct: expressed in transfected cells; host or cells: E. coli BL21(DE3) hemG, pET24a plasmid
T1 sequence (P55826 35-537 V511L): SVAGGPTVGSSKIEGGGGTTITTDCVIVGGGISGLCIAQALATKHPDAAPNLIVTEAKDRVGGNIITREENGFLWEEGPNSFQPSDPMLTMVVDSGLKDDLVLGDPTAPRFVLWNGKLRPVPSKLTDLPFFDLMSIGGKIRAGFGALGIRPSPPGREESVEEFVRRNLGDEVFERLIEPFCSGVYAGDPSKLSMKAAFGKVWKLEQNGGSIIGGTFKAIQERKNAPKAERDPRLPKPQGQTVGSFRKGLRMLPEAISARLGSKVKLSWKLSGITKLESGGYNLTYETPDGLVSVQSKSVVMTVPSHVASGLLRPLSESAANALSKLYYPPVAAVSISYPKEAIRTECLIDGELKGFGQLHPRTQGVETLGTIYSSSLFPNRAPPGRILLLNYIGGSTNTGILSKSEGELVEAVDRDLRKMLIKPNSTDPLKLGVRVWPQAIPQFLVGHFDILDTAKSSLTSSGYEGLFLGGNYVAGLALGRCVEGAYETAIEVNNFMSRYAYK
In outline:
(§1)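 Variant plasmids were transformed into hemG-null BL21(DE3) and precultured 24 h with hematin. Washed cells were diluted 1:100 into Terrific broth containing 0.1 mM IPTG and herbicide (6.25 ppm 0 or E; 0.78 ppm B) or DMSO. After 24 h at 37° C, OD600 gave percent inhibition.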

The target in another test is T2, AtPPO1 V365M (Arabidopsis thaliana, UniProt P55826, V365M).
T2 construct: expressed in transfected cells; host or cells: E. coli BL21(DE3) hemG (pET24a, T7 promoter)
T2 sequence (P55826 35-537 V365M): T1 sequence (P55826 35-537 V511L) with V331M, L477V
In outline: as §1

The target in another test is T3, AtPPO1 V198W (Arabidopsis thaliana, UniProt P55826, V198W).
T3 construct: expressed in transfected cells; host or cells: E. coli BL21(DE3) hemG (hemG replaced by CmR), pET24a plasmid
T3 sequence (P55826 35-537 V198W): T1 sequence (P55826 35-537 V511L) with V164W, L477V
In outline: as §1

The target of another test is T4, AtPPO1 K270M (Arabidopsis thaliana, UniProt P55826, K270M).
T4 construct: expressed in transfected cells; host or cells: E. coli BL21(DE3) hemG, pET24a plasmid
T4 sequence (P55826 35-537 K270M): T1 sequence (P55826 35-537 V511L) with K236M, L477V
Summed up:
as §1

Where a chain is given by its changes, count along the chain named.

By inhibition is commonly meant the drop in the measured response relative to a control, in per cent.

Regarding `C#CCN1C(=O)C(F)(F)Oc2cc(F)c(-n3c(=O)n(C)c(=S)n(C)c3=O)cc21` [Herbicide B, trifludimoxazin], the inhibition at 0.78 ppm at AtPPO1 V511L amounted to 18%; at AtPPO1 V365M it was 3%; at AtPPO1 V198W, 30%; at AtPPO1 K270M, 28%.

For the molecule `CCOC(=O)[C@]1(C)CC(c2cc(-n3c(=O)n(C)c(=S)n(C)c3=O)c(F)cc2Cl)=NO1` [Herbicide D, ethyl (5S)-3-[2-chloro-5-(3,5-dimethyl-2,6-dioxo-4-thioxo-1,3,5-triazinan-1-yl)-4-fluoro-phenyl]-5-methyl-4H-isoxazole-5-carboxylate], the inhibition at 6.25 ppm stood at 18% at AtPPO1 V511L, 42% on AtPPO1 V365M, 47% on AtPPO1 V198W and 23% at AtPPO1 K270M.

Regarding `CC(C)N(C)S(=O)(=O)NC(=O)c1cc(-n2c(=O)cc(C(F)(F)F)n(C)c2=O)c(F)cc1Cl` [Herbicide E, saflufenacil], the inhibition at 6.25 ppm at AtPPO1 V511L worked out at 46%; at AtPPO1 V365M it was 22%; on AtPPO1 V198W, 51%; at AtPPO1 K270M, 29%.
